Measured values reported in patent publication US9169252B2 (BRISTOL-MYERS SQUIBB COMPANY, priority 2014, dated 2015).
Read-outs that look alike come from different tables or passages of the source.

How the values were obtained:
[1] = biological target: IRAK4 (Homo sapiens (Human), UniProt Q9NWZ3); assay: IRAK4 Inhibition Assay; assay type: biochemical; conditions: ATP 500 μM, read-out: IRAK4 IC50
Summary of the method: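 IRAK4 combined with fluorescent substrate and compounds, reacted 60 min at room temperature, stopped with 35 mM EDTA. Substrate and phosphorylated product separated electrophoretically on a Caliper LabChip 3000 mobility-shift reader.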

[2] = test system: TLR2 induced IL-6 in peripheral blood mononuclear cells (PBMCs); assay: PBMC TLR2 Induced IL-6 Assay; assay type: cell-based, human; conditions: IL-6 by ELISA; for EC50: read-out: Cell EC50; for IC50: read-out: Cell IC50
Summary of the method: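 Lipoteichoic acid at 10 µg/ml served as TLR2 stimulus for 5 hours, following a 30-minute compound pretreatment at 37° C. Cells were Ficoll-isolated human PBMCs, 250000 cells/well, cultured in RPMI plus 10% heat-inactivated FCS.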

[3] = Homo sapiens, PBMC, PBMC TLR2 Induced IL-6 Assay, lipoteichoic acid stimulation
[4] = Homo sapiens, PBMC, human PBMCs, lipoteichoic acid stimulated

IRAK4, sequence (Q9NWZ3 whole entry, species assumed): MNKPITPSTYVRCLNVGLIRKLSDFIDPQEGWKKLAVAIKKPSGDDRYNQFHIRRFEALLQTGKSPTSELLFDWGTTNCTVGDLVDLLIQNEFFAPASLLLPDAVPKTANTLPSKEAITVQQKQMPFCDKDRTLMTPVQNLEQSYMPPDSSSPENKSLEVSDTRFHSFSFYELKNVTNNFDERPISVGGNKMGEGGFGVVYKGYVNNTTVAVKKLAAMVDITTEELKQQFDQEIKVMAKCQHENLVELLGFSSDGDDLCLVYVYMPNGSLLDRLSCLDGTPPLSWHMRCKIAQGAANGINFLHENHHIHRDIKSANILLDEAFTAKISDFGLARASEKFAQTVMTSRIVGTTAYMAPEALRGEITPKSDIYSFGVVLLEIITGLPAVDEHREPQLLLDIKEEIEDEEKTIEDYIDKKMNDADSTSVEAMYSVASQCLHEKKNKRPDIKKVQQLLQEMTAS

Compound | IC50 ([1]; IRAK4 Inhibition Assay) | EC50 [2, 3] | IC50 ([1]; IRAK4 0.6 nM) | IC50 [2, 4] | further results
CC(C)(O)[C@H](F)CNC(=O)c1cnc(-n2ccc3cc(C#N)cnc32)cc1NC[C@@H](F)C(C)(C)O [Example 52, 6-(5-cyano-1H-pyrrolo[2,3-b]pyridin-1-yl)-N—((R)-2-fluoro-3-hydroxy-3-methylbutyl)-4-(((R)-2-fluoro-3-hydroxy-3-methylbutyl)amino)nicotinamide] | 0.0024 µM | 0.066 µM |  |  | 
CC(C)Nc1cc(-n2ncc3cc(C#N)cnc32)ncc1C(=O)Nc1cnn(CC(F)F)c1 [Example 285] | 0.01 µM |  |  |  | IC50 [2, 3]: 0.2 µM
CC(C)(O)[C@H](F)CNC(=O)c1cnc(-n2ncc3cc(C(N)=O)cnc32)cc1Nc1ccc2ncoc2c1 [Example 525] |  |  | 0.0016 µM |  | EC50 [2, 4]: 0.253 µM
COC(=O)N1CC(Nc2cc(-n3ncc4cc(C#N)cnc43)ncc2C(=O)NC[C@@H](F)C(C)(C)O)C1 [Example 542] |  |  | 0.0073 µM | 0.973 µM | 
CC(C)Nc1cc(-n2ncc3cc(C#N)cnc32)ncc1C(=O)NCCCc1ncn[nH]1 [Example 213] | 0.0148 µM | 0.428 µM |  |  | 
COc1cnc(N2CC[C@@H](Nc3cc(-n4ncc5cc(C#N)cnc54)ncc3C(=O)NC[C@@H](F)C(C)(C)O)C2)nc1 [Example 536] |  |  | 0.0081 µM |  | EC50 [2, 4]: 0.189 µM
CC(C)(O)[C@H](F)CNC(=O)c1cnc(-n2ncc3cc(F)cnc32)cc1NC1CC1 [Example 156, (R)-4-(cyclopropylamino)-6-(5-fluoro-1H-pyrazolo[3,4-b]pyridin-1-yl)-N-(2-fluoro-3-hydroxy-3-methylbutyl)nicotinamide] | 0.0095 µM | 0.231 µM |  |  | 
CC(C)Nc1cc(-n2ncc3cc(C#N)cnc32)ncc1C(=O)NCCC1CCN(C)CC1 [Example 266] | 0.0026 µM |  |  |  | IC50 [2, 3]: 0.073 µM
CC(F)[C@H](C)Nc1cc(-n2ccc3cc(C#N)cnc32)ncc1C(=O)NC[C@@H](F)C(C)(C)O (stereo partly drawn) [Example 72, 6-(5-cyano-1H-pyrrolo[2,3-b]pyridin-1-yl)-N—((R)-2-fluoro-3-hydroxy-3-methylbutyl)-4-(((2S)-3-fluorobutan-2-yl)amino) nicotinamide] | 0.002 µM | 0.072 µM |  |  | 
CC(C)Nc1cc(-n2ccc3cc(CNC(=O)NCc4ccccc4)cnc32)ncc1C(=O)NC[C@@H](F)C(C)(C)O [Example 514] |  |  | 0.0082 µM | 0.047 µM | 
CC(C)(O)[C@H](F)CNC(=O)c1cnc(-n2ncc3cc(C#N)cnc32)cc1N[C@@H]1CCN(C(=O)c2ccc(F)cc2F)C1 [Example 538] |  |  | 0.0096 µM | 0.698 µM | 
CC(C)(O)[C@H](F)CNC(=O)c1cnc(-n2ccc3cc(C#N)cnc32)cc1Nc1cnn(C2CCOCC2)c1 [Example 373] | 0.0024 µM |  |  |  | IC50 [2, 3]: 0.071 µM
CC(C)(O)/C=C/Nc1cc(-n2ccc3cc(C#N)cnc32)ncc1C(=O)NC[C@@H](F)C(C)(C)O [Example 419] |  |  | 0.0048 µM |  | EC50 [2, 4]: 0.107 µM
CCn1cc(Nc2cc(-n3ncc4cc(C#N)cnc43)ncc2C(=O)NC[C@@H](F)C(C)(C)O)cn1 [Example 355] | 0.0024 µM |  |  |  | IC50 [2, 3]: 0.122 µM
CC(C)Nc1cc(-n2ccc3cc(CNC(=O)CC4CCCC4)cnc32)ncc1C(=O)NC[C@@H](F)C(C)(C)O [Example 504] |  |  | 0.0043 µM | 0.262 µM | 
CC(C)(O)[C@H](F)CNC(=O)c1cnc(-n2ccc3cc(C#N)cnc32)cc1Nc1cccc(C#N)c1 [Example 66, (R)-6-(5-cyano-1H-pyrrolo[2,3-b]pyridin-1-yl)-4-((3-cyanophenyl)amino)-N-(2-fluoro-3-hydroxy-3-methylbutyl)nicotinamide] | 0.0017 µM | 0.201 µM |  |  | 
CNC(=O)[C@H]1CC[C@H](NC(=O)c2cnc(-n3ncc4cc(C#N)cnc43)cc2NC(C)C)CC1 [Example 160, 6-(5-cyano-1H-pyrazolo[3,4-b]pyridin-1-yl)-4-(isopropylamino)-N-((trans)-4-(methylcarbamoyl)cyclohexyl)nicotinamide] | 0.0058 µM | 0.176 µM |  |  | 
CS(=O)(=O)[C@H]1CC[C@H](NC(=O)c2cnc(-n3ccc4cc(C#N)cnc43)cc2NC2CC2)CC1 [Example 104, 6-(5-Cyano-1H-pyrrolo[2,3-b]pyridin-1-yl)-4-(cyclopropylamino)-N-((trans)-4-(methylsulfonyl)cyclohexyl)nicotinamide] | 0.0017 µM | 0.067 µM |  |  | 
CC(C)Nc1cc(-n2ncc3cc(C#N)c(N)nc32)ncc1C(=O)NC[C@@H](C)F [Example 328] | 0.01 µM |  |  |  | IC50 [2, 3]: 0.011 µM
CC(C)(O)[C@H](F)CNC(=O)c1cnc(-n2cnc3cc(Cl)cnc32)cc1Nc1cnn(CC(F)F)c1 [Example 359] | 0.0013 µM |  |  |  | IC50 [2, 3]: 0.084 µM

Compound | IC50 ([1]; IRAK4 Inhibition Assay) | EC50 [2, 3] | IC50 ([1]; IRAK4 0.6 nM) | IC50 [2, 4] | further results
CC(C)(O)[C@H]1CCC[C@@H](Nc2cc(-n3ncc4cc(C#N)cnc43)ncc2C(=O)NC[C@@H](F)C(C)(C)O)C1 [Example 612] |  |  | 0.0056 µM | 0.262 µM | EC50 [2, 4]: 0.163 µM
CC(C)(O)[C@H](F)CNC(=O)c1cnc(-n2ncc3cc(C#N)cnc32)cc1NC12CCC(O)(CC1)C2 [Example 613] |  |  | 0.0028 µM | 0.13 µM | EC50 [2, 4]: 0.157 µM
N#Cc1cc2cnn(-c3cc(NC4COC4)c(C(=O)NCCC4CC4)cn3)c2nc1N [Example 558] |  |  | 0.0061 µM | 0.615 µM | 
CC(C)(O)[C@H](F)CNC(=O)c1cnc(-n2ccc3cc(C#N)cnc32)cc1Nc1cccc(CO)c1 [Example 71, (R)-6-(5-cyano-1H-pyrrolo[2,3-b]pyridin-1-yl)-N-(2-fluoro-3-hydroxy-3-methylbutyl)-4-((3-(hydroxymethyl)phenyl)amino)nicotinamide] | 0.0015 µM | 0.028 µM |  |  | 
CC(C)Nc1cc(-n2ccc3cc(CNC(=O)OC(C)C)cnc32)ncc1C(=O)NC[C@@H](F)C(C)(C)O [Example 502] |  |  | 0.0048 µM | 0.366 µM | 
CNC(=O)[C@H]1CC[C@H](NC(=O)c2cnc(-n3ncc4cc(Cl)cnc43)cc2NC(C)C)CC1 [Example 152, 6-(5-chloro-1H-pyrazolo[3,4-b]pyridin-1-yl)-4-(isopropylamino)-N-((trans)-4-(methylcarbamoyl)cyclohexyl)nicotinamide] | 0.0056 µM | 0.294 µM |  |  | 
CC(C)Nc1cc(-n2ncc3cncnc32)ncc1C(=O)NC[C@@H](F)C(C)(C)O [Example 144, (R)—N-(2-fluoro-3-hydroxy-3-methylbutyl)-4-(isopropylamino)-6-(1H-pyrazolo[3,4-d]pyrimidin-1-yl)nicotinamide] | 0.0062 µM | 0.148 µM |  |  | 
CNC(=O)[C@H]1CC[C@H](NC(=O)c2cnc(-n3ccc4cc(C#N)cnc43)cc2NC(C)C)CC1 [Example 80, 6-(5-cyano-1H-pyrrolo[2,3-b]pyridin-1-yl)-4-(isopropylamino)-N-((trans)-4-(methylcarbamoyl)cyclohexyl)nicotinamide] | 0.0011 µM | 0.167 µM |  |  | IC50 [2, 3]: 0.079 µM
CC(C)(O)[C@H](F)CNC(=O)c1cnc(-n2ncc3cc(C#N)cnc32)cc1NCCNC(=O)OC(C)(C)C(F)(F)F [Example 587] |  |  | 0.0138 µM | 0.298 µM | 
CCNc1cc(-n2ccc3cc(C(N)=O)cnc32)ncc1C(=O)NC[C@@H](F)C(C)(C)O [Example 123, (R)-1-(4-(Ethylamino)-5-((2-fluoro-3-hydroxy-3-methylbutyl)carbamoyl)pyridin-2-yl)-1H-pyrrolo[2,3-b]pyridine-5-carboxamide] | 0.0045 µM | 0.128 µM |  |  | 
CC(=O)N1CC[C@@H](Nc2cc(-n3ccc4cc(C#N)cnc43)ncc2C(=O)NC[C@@H](F)C(C)(C)O)C1 [Example 469] |  |  | 0.0029 µM | 0.207 µM | EC50 [2, 4]: 0.084 µM
CC(C)Nc1cc(-n2ncc3cc(C#N)cnc32)ncc1C(=O)NC[C@@H](F)C(C)(C)O [Example 335] | 0.0033 µM |  |  |  | EC50 ([2]; PBMC TLR2 Induced IL-6 Assay, lipoteichoic acid stimulation): 0.077 µM
CC(C)Nc1cc(-n2ncc3cc(C#N)c(N)nc32)ncc1C(=O)NCCC1CC1 [Example 299] | 0.0063 µM |  |  |  | IC50 [2, 3]: 0.252 µM
CCCn1cc(Nc2cc(-n3ccc4cc(C#N)cnc43)ncc2C(=O)NC[C@@H](F)C(C)(C)O)cn1 [Example 383] | 0.0014 µM |  |  |  | IC50 [2, 3]: 0.113 µM
CC(C)(O)[C@H](F)CNC(=O)c1cnc(-n2ccc3cc(C#N)cnc32)cc1NC1CC(F)(F)C1 [Example 53, (R)-6-(5-cyano-1H-pyrrolo[2,3-b]pyridin-1-yl)-4-((3,3-difluorocyclobutyl)amino)-N-(2-fluoro-3-hydroxy-3-methylbutyl)nicotinamide] | 0.0019 µM | 0.271 µM |  |  | 
CC(C)(O)[C@H](F)CNC(=O)c1cnc(-n2ncc3cc(C#N)cnc32)cc1Nc1ccn(CC(F)F)n1 [Example 407] |  |  | 0.0031 µM | 0.287 µM | 
CC(C)(O)[C@H](F)CNC(=O)c1cnc(-n2ncc3cc(C#N)cnc32)cc1NCc1cocn1 [Example 571] |  |  | 0.0152 µM | 0.101 µM | 
CC(C)c1cc(Nc2cc(-n3ncc4cc(C#N)cnc43)ncc2C(=O)NC[C@@H](F)C(C)(C)O)[nH]n1 [Example 406] |  |  | 0.0048 µM | 0.066 µM | 
CC(C)Nc1cc(-n2ccc3cc(C#N)cnc32)ncc1C(=O)N[C@H]1CC[C@](O)(c2nccs2)CC1 [Example 175, 6-(5-cyano-1H-pyrrolo[2,3-b]pyridin-1-yl)-N-((1s,4s)-4-hydroxy-4-(thiazol-2-yl)cyclohexyl)-4-(isopropylamino)nicotinamide] | 0.005 µM | 0.113 µM |  |  | 
